The target of experiment [1] is T1, recombinant human ALK5 (TGF-βR1) protein (Homo sapiens, UniProt P36897).
T1 construct: purchased Life Technologies PR9075A
T1 sequence (P36897 34-503): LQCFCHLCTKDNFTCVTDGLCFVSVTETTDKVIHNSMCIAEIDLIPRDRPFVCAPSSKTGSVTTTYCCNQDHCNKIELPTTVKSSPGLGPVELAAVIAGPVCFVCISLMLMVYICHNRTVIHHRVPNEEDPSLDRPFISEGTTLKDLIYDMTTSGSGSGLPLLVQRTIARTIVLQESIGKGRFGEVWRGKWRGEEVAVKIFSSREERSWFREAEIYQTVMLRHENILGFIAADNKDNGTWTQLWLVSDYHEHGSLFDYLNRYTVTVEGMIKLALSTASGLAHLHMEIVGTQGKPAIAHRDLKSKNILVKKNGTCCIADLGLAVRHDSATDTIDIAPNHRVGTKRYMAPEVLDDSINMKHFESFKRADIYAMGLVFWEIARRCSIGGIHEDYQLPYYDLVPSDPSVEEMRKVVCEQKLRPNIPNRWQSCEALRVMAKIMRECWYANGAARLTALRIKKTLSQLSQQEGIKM
Briefly: Biochemical ALK5 (TGF-βR1) assay to measure pKi (LANCE Ultra ULight kinase assay). As to conditions: apparent pKi, converted from pIC50 by Cheng-Prusoff. The method, boiled down:
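Dose-response series of each compound were preincubated with the kinase for 60 minutes at room temperature. Phosphorylation proceeded for 60 minutes at 37 °C after ATP addition, was quenched with EDTA, and was detected with a europium anti-phospho-Thr1342 antibody by TR-FRET; pKi was calculated from pIC50.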

For experiment [2], the system named is TGF-β-stimulated SMAD3 phosphorylation in BEAS-2B cells. Briefly: Cellular ALK5 potency assay, inhibition of TGF-β stimulated pSMAD3 formation in BEAS-2B cells. The class given is cell-based. As to conditions: Homo sapiens, pSMAD3, TGF-β 10 ng/mL, read-out: BEAS2B pIC50 (converted). The method, boiled down: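 BEAS-2B cells, HBSS/25 mM HEPES/1% BSA buffer; cpd 1 h, 37 °C; TGF-β 10 ng/mL final, 30 min; lysis, AlphaLISA pSMAD3 read next day. pIC50 vs stimulated no-compound baseline.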

`CC[C@H](C)OC(=O)C1CN(c2ccc(Nc3nccc(Nc4ccnc(-c5cccc(C)n5)n4)n3)cc2)CCN1` (stereo partly drawn) [Compound 113, [(1S)-1-methylpropyl] 4-[4-[[4-[[2-(6-methyl-2-pyridyl)pyrimidin-4-yl]amino]pyrimidin-2-yl]amino]phenyl]piperazine-2-carboxylate]: the Ki in experiment [1] is 0.0398 to 0.316 nM. Besides, in experiment [2], the IC50 is 25.1 to 158 nM.

`Cc1cccc(-c2nccc(Nc3ccnc(Nc4ccc(C5CCNCC5)cn4)n3)n2)n1` [Compound 114, N4-[2-(6-methyl-2-pyridyl)pyrimidin-4-yl]-N2-[5-(4-piperidyl)-2-pyridyl]pyrimidine-2,4-diamine]: in experiment [1], the Ki was 0.398 to 3.16 nM. The IC50 in experiment [2] is 200 to 1260 nM.

Consider `Cc1cccc(-c2nccc(Nc3ccnc(Nc4ccc(C(=O)N5CCNCC5)s4)n3)n2)n1` [Compound 115, [5-[[4-[[2-(6-methyl-2-pyridyl)pyrimidin-4-yl]amino]pyrimidin-2-yl]amino]-2-thienyl]-piperazin-1-yl-methanone], for which the Ki in experiment [1] was 0.0398 to 0.316 nM. Also, the IC50 in experiment [2] is 25.1 to 158 nM.

Consider `Cc1cccc(-c2nccc(Nc3ccnc(Nc4ccc(N(C)[C@H]5CCNC5)cc4)n3)n2)n1` [Compound 116, N4-[2-(6-methyl-2-pyridyl)pyrimidin-4-yl]-N2-[4-[methyl-[(3S)-pyrrolidin-3-yl]amino]phenyl]pyrimidine-2,4-diamine], for which the Ki in experiment [1] is 0.0398 to 0.316 nM. The IC50 in experiment [2] is 25.1 to 158 nM.

As for `Cc1cccc(-c2nccc(Nc3ccnc(Nc4cccc(NCC5CNC5)c4)n3)n2)n1` [Compound 118, N2-[3-(azetidin-3-ylmethylamino)phenyl]-N4-[2-(6-methyl-2-pyridyl)pyrimidin-4-yl]pyrimidine-2,4-diamine], in experiment [1], the Ki is 0.0398 to 0.316 nM. Besides, the IC50 in experiment [2] was 25.1 to 158 nM.

As for `Cc1cccc(-c2nccc(Nc3ccnc(Nc4ccc(S(N)(=O)=O)cn4)n3)n2)n1` [Compound 119, 6-[[4-[[2-(6-methyl-2-pyridyl)pyrimidin-4-yl]amino]pyrimidin-2-yl]amino]pyridine-3-sulfonamide], in experiment [1], the Ki was 3.98 to 31.6 nM. In experiment [2], the IC50 is 25.1 to 158 nM.

Take `Cc1cccc(-c2nccc(Nc3ccnc(Nc4ccc(N5CCNCC5)c(F)c4)n3)n2)n1` [Compound 120, N2-(3-fluoro-4-piperazin-1-yl-phenyl)-N4-[2-(6-methyl-2-pyridyl)pyrimidin-4-yl]pyrimidine-2,4-diamine]: in experiment [1], the Ki was 0.0398 to 0.316 nM. Further, the IC50 in experiment [2] was 25.1 to 158 nM.

With `Cc1cccc(-c2nccc(Nc3ccnc(Nc4ccc(N5CCNCC5)cn4)n3)n2)n1` [Compound 121, N4-(2-(6-methylpyridin-2-yl)pyrimidin-4-yl)-N2-(5-(piperazin-1-yl)pyridin-2-yl)pyrimidine-2,4-diamine], the Ki in experiment [1] was 0.398 to 3.16 nM. Moreover, the IC50 in experiment [2] was 25.1 to 158 nM.

With `Cc1cccc(-c2nccc(Nc3ccnc(Nc4ccc(S(=O)(=O)N(C)C5CCNCC5)cc4)n3)n2)n1` [Compound 122, N-methyl-4-[[4-[[2-(6-methyl-2-pyridyl)pyrimidin-4-yl]amino]pyrimidin-2-yl]amino]-N-(4-piperidyl)benzenesulfonamide], the Ki in experiment [1] was 0.0398 to 0.316 nM. For the same compound, the IC50 in experiment [2] was 25.1 to 158 nM.

With `Cc1cccc(-c2nccc(Nc3ccnc(Nc4ccc(N5CCC(N6CCCC6)CC5)cc4)n3)n2)n1` [Compound 123, N4-[2-(6-methyl-2-pyridyl)pyrimidin-4-yl]-N2-[4-(4-pyrrolidin-1-yl-1-piperidyl)phenyl]pyrimidine-2,4-diamine], the Ki in experiment [1] is at most 0.0316 nM. In addition, the IC50 in experiment [2] is 25.1 to 158 nM.

Turning to `Cc1cccc(-c2nccc(Nc3ccnc(Nc4ccc(CN5CCC(C(=O)O)C5)cc4)n3)n2)n1` (stereo not shown) [Compound 124, 1-[[4-[[4-[[2-(6-methyl-2-pyridyl)pyrimidin-4-yl]amino]pyrimidin-2-yl]amino]phenyl]methyl] pyrrolidine-3-carboxylic acid], the Ki in experiment [1] is 0.0398 to 0.316 nM. Also, the IC50 in experiment [2] is 25.1 to 158 nM.

In the case of `Cc1cccc(-c2nccc(Nc3ccnc(Nc4cccc(NC(=O)NC5CNC5)c4)n3)n2)n1` [Compound 125, 1-(azetidin-3-yl)-3-[3-[[4-[[2-(6-methyl-2-pyridyl)pyrimidin-4-yl]amino]pyrimidin-2-yl]amino]phenyl]urea], in experiment [1], the Ki is 0.0398 to 0.316 nM. Besides, the IC50 in experiment [2] was 25.1 to 158 nM.

In the case of `Cc1cccc(-c2nccc(Nc3ccnc(Nc4ccc(Cl)c(N)c4)n3)n2)n1` [Compound 126, N2-(3-amino-4-chloro-phenyl)-N4-[2-(6-methyl-2-pyridyl)pyrimidin-4-yl]pyrimidine-2,4-diamine], the Ki in experiment [1] is 0.398 to 3.16 nM. Further, the IC50 in experiment [2] was at most 20 nM.

For the compound `COC1CN(Cc2ccc(Nc3nccc(Nc4ccnc(-c5cccc(C)n5)n4)n3)cc2)C1` [Compound 127, N2-[4-[(3-methoxyazetidin-1-yl)methyl]phenyl]-N4-[2-(6-methyl-2-pyridyl)pyrimidin-4-yl]pyrimidine-2,4-diamine], in experiment [1], the Ki is 0.0398 to 0.316 nM. Further, the IC50 in experiment [2] is 25.1 to 158 nM.

Consider `Cc1cccc(-c2nccc(Nc3ccnc(Nc4ccc(C)c(NC(=O)C5CCNCC5)c4)n3)n2)n1` [Compound 128, N-[2-methyl-5-[[4-[[2-(6-methyl-2-pyridyl)pyrimidin-4-yl]amino]pyrimidin-2-yl]amino]phenyl]piperidine-4-carboxamide], for which the Ki in experiment [1] was 0.0398 to 0.316 nM. Besides, the IC50 in experiment [2] was at most 20 nM.

Turning to `Cc1cccc(-c2nccc(Nc3ccnc(Nc4ccc(CN5CCN6CCCC6C5)cc4)n3)n2)n1` (stereo not shown) [Compound 129, N2-[4-(3,4,6,7,8,8a-hexahydro-1H-pyrrolo[1,2-a]pyrazin-2-ylmethyl)phenyl]-N4-[2-(6-methyl-2-pyridyl)pyrimidin-4-yl]pyrimidine-2,4-diamine], the Ki in experiment [1] was 0.0398 to 0.316 nM. In experiment [2], the IC50 was 25.1 to 158 nM.

Consider `Cc1cccc(-c2nccc(Nc3ccnc(Nc4ccc(F)c(CN5C[C@@H](C)N[C@@H](C)C5)c4)n3)n2)n1` [Compound 130, N2-[4-fluoro-3-[[rac-(3R,5S)-3,5-dimethylpiperazin-1-yl]methyl]phenyl]-N4-[2-(6-methyl-2-pyridyl)pyrimidin-4-yl]pyrimidine-2,4-diamine], for which the Ki in experiment [1] was 0.0398 to 0.316 nM. Moreover, the IC50 in experiment [2] is 25.1 to 158 nM.

Regarding `Cc1cccc(-c2nccc(Nc3ccnc(Nc4ccc(CN5CC(O)C5)cc4)n3)n2)n1` [Compound 131, 1-[[4-[[4-[[2-(6-methyl-2-pyridyl)pyrimidin-4-yl]amino]pyrimidin-2-yl]amino]phenyl]methyl] azetidin-3-ol], the Ki in experiment [1] is 0.0398 to 0.316 nM. Also, in experiment [2], the IC50 is 25.1 to 158 nM.

On to `Cc1cccc(-c2nccc(Nc3ccnc(Nc4ccc(CN5CCNC[C@@H]5CO)cc4)n3)n2)n1` [Compound 132, [(2R)-1-[[4-[[4-[[2-(6-methyl-2-pyridyl)pyrimidin-4-yl]amino]pyrimidin-2-yl]amino]phenyl]methyl]piperazin-2-yl]methanol], for which the Ki in experiment [1] is 0.0398 to 0.316 nM. Also, the IC50 in experiment [2] was 25.1 to 158 nM.

Regarding `Cc1cccc(-c2nccc(Nc3ccnc(Nc4ccc(C5CCNCC5)cc4)n3)n2)n1` [Compound 133, N4-[2-(6-methyl-2-pyridyl)pyrimidin-4-yl]-N2-[4-(4-piperidyl)phenyl]pyrimidine-2,4-diamine], in experiment [1], the Ki is 0.0398 to 0.316 nM. In experiment [2], the IC50 is 25.1 to 158 nM.

(Values after US20230399312A1, “SUBSTITUTED PYRIMIDINES AND METHODS OF USE” (THERAVANCE BIOPHARMA R&D IP, LLC, priority 2020, published 2023).)
